This note sets out measurements from ChEMBL document CHEMBL4229557, “Synthesis and SAR of new isoxazole-triazole bis-heterocyclic compounds as analogues of natural lignans with antiparasitic activity” (Bioorg Med Chem, 2018).

The source made the active and inactive calls. The calls are words filed in the database; no cut-off is given here.

In data set [1] the test system is Trypanosoma cruzi. The data set can be described thus: Growth inhibition of Trypanosoma cruzi Tulahuen amastigote forms infected in human THP1 cells at 100 uM after 72 hrs by beta-galactosidase reporter gene assay relative to control. It is filed as functional. The conditions noted are these: THP-1, 72 h, read-out: GI. Background: A reporter such as luciferase makes a cellular process visible.

Data set [2] can be described thus: Selectivity index, ratio of CC50 for human THP1 cells to GI50 for Trypanosoma cruzi Tulahuen amastigote forms infected in human THP1 cells. The format is toxicity, cell-based. The settings on record: read-out: Selectivity Index.
Data set [3] concerns Leishmania amazonensis. The data set can be described thus: Growth inhibition of Leishmania amazonensis MHOM/BR/77/LTB0016 amastigote forms expressing beta-galactosidase infected in human THP1 cells at 100 uM by colorimetrc assay relative to control. The conditions noted are these: for inhibition of growth at 100 µM: MHOM/BR/77/LTB0016, THP-1, read-out: GI. The format is functional.

Data set [4] can be described thus: Cytotoxicity against human THP1 cells after 72 hrs by MTT assay. The format is cell-based. The settings on record: THP-1 cells. (Tetrazolium assays rely on reduction of a dye to a coloured formazan, in cell work by metabolically active cells.)
Data set [5] has as its target Trypanothione reductase (Trypanosoma cruzi) (UniProt P28593). The data set can be described thus: Inhibition of Trypanosoma cruzi Trypanothione reductase expressed in Escherichia coli BL21(DE3) at 100 uM using T(S)2 as substrate incubated for 30 mins measured for 30 mins in presence of NADPH by DTNB reagent based assay relative to control.
The subject of data set [6] is Trypanosoma cruzi. In words: Growth inhibition of Trypanosoma cruzi Tulahuen amastigote forms infected in human THP1 cells after 72 hrs by beta-galactosidase reporter gene assay. The format is functional.
The test system of data set [7] is Leishmania amazonensis. The data set can be described thus: Growth inhibition of Leishmania amazonensis MHOM/BR/77/LTB0016 amastigote forms expressing beta-galactosidase infected in human THP1 cells at 2 uM by colorimetrc assay relative to control. It is filed as functional. The conditions noted are these: MHOM/BR/77/LTB0016, THP-1, read-out: GI.
Data set [8] concerns Trypanosoma cruzi. The data set can be described thus: Growth inhibition of Trypanosoma cruzi Tulahuen amastigote forms infected in human THP1 cells at 20 uM after 72 hrs by beta-galactosidase reporter gene assay relative to control. It is filed as functional. The settings on record: THP-1, 72 h, read-out: GI.

Chain of Trypanothione reductase (Trypanosoma cruzi) (P28593 whole entry, looked up): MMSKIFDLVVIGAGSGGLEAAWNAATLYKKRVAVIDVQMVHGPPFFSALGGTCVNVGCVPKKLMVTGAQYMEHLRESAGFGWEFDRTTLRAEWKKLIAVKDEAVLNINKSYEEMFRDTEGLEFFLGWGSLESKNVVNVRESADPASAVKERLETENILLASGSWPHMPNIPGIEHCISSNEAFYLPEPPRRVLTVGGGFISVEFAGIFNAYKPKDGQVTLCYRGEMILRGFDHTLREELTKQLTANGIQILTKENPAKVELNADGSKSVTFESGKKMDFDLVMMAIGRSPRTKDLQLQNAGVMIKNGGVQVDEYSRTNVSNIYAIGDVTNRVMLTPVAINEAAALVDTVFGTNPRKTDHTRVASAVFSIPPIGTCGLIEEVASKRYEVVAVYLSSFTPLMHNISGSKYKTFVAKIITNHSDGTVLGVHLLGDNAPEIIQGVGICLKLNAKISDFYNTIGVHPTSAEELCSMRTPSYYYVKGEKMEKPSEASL

For orientation: CC50 means the concentration at which the toxic effect on the cells reaches its halfway point. A low value points to harm at low concentration. By inhibition is commonly meant how much of the control response was suppressed. The GI50 is the concentration that inhibits growth by half. `COc1ccc(-c2cc(Cn3cc(-c4ccc(OC(F)(F)F)cc4)nn3)on2)cc1OC`: the inhibition of growth at 100 µM in the data set with Trypanosoma cruzi [1] was determined as 78.5%. Further, the selectivity ratio in data set [2] was 5.7. For the same compound, in the data set with Leishmania amazonensis [3], the “growth inhibition (GI)” value was “inactive”. The CC50 at 72 h in data set [4] amounted to 227 µM. In addition, the inhibition in data set [5] is 0%. In the data set with Trypanosoma cruzi [6] (THP-1, 72 h), this compound came in with a GI50 of 40.1 µM.
As to `C[C@@H]1[C@H](O)[C@@H](C)/C=C/C=C/C=C/C=C/C=C/C=C/C=C/[C@H](O[C@@H]2O[C@H](C)[C@@H](O)[C@H](N)[C@@H]2O)C[C@@H]2O[C@](O)(C[C@@H](O)C[C@@H](O)[C@H](O)CC[C@@H](O)C[C@@H](O)CC(=O)O[C@H]1C)C[C@H](O)[C@H]2C(=O)O` [AMPHOTERICIN B], in the data set on Leishmania amazonensis [7], the inhibition of growth at 2 µM is 96.5%.
As to `COc1ccc(-c2cn(Cc3cc(-c4ccc(OC)c(OC)c4)no3)nn2)cc1`, the inhibition of growth at 100 µM in the data set on Trypanosoma cruzi [1] came out at 81.9%. The selectivity ratio in data set [2] is above 22. The “growth inhibition (GI)” value in the data set with Leishmania amazonensis [3] was “inactive”. The CC50 at 72 h in data set [4] is above 500 µM. Also, the inhibition in data set [5] came to 9.6%. Besides, the GI50 in the data set on Trypanosoma cruzi [6] (THP-1, 72 h) was 22.7 µM.
As for `COc1cc(OC)cc(-c2cn(Cc3cc(-c4ccc5c(c4)OCO5)no3)nn2)c1`, in the data set on Trypanosoma cruzi [1], the inhibition of growth at 100 µM turned out to be 87.9%. The selectivity ratio in data set [2] worked out at 4.2. The “growth inhibition (GI)” value in the data set with Leishmania amazonensis [3] was “inactive”. The same compound registered a CC50 at 72 h in data set [4] of 208 µM. Besides, in data set [5], the inhibition amounted to 0%. In addition, in the data set on Trypanosoma cruzi [6] (THP-1, 72 h), it took 49.9 µM to inhibit growth by half (GI50).
Consider `O=C(Cn1ccnc1[N+](=O)[O-])NCc1ccccc1` [BENZNIDAZOLE], for which the inhibition of growth at 20 µM in the data set with Trypanosoma cruzi [8] stood at 93%. Moreover, in data set [2], the selectivity ratio is above 49. The compound also gave a CC50 at 72 h in data set [4] above 500 µM. For the same compound, growth with Trypanosoma cruzi [6] (THP-1, 72 h) was halved (GI50) at 10.2 µM.
Consider `COc1cc(OC)cc(-c2cn(Cc3cc(-c4ccc(OC)c(OC)c4)no3)nn2)c1`, for which the inhibition of growth at 100 µM with Trypanosoma cruzi [1] was 74.8%. Moreover, the selectivity ratio in data set [2] was above 16.5. For the same compound, the “growth inhibition (GI)” value in the data set with Leishmania amazonensis [3] was “inactive”. The compound further yielded a CC50 at 72 h in data set [4] above 500 µM. In data set [5], the inhibition worked out at 8.9%. In addition, it took 30.3 µM to inhibit growth with Trypanosoma cruzi [6] (THP-1, 72 h) by half (GI50).
For `COc1ccc(-c2cc(Cn3cc(-c4ccc(N)cc4)nn3)on2)cc1OC`, in the data set on Trypanosoma cruzi [1], the inhibition of growth at 100 µM worked out at 42.8%. Besides, in the data set on Leishmania amazonensis [3], the “growth inhibition (GI)” value is “inactive”. The compound also gave a GI50 with Trypanosoma cruzi [6] (THP-1, 72 h) above 100 µM.
For `CCCCCc1ccc(-c2cn(Cc3cc(-c4ccc(OC)cc4)no3)nn2)cc1`, in that order: 13.4%, “inactive” and above 100 µM.
Take `CCCCCc1ccc(-c2cn(Cc3cc(-c4ccc5c(c4)OCO5)no3)nn2)cc1`: the inhibition of growth at 100 µM came out at 48.9% in the data set on Trypanosoma cruzi [1] and 1.7% with Leishmania amazonensis [3]. The compound also had a GI50 in the data set on Trypanosoma cruzi [6] (THP-1, 72 h) above 100 µM.
Take `COc1ccc(-c2cc(Cn3cc(-c4ccc(CO)cc4)nn3)on2)cc1OC`: in the data set on Trypanosoma cruzi [1], the inhibition of growth at 100 µM is 43.4%. In addition, the “growth inhibition (GI)” value in the data set on Leishmania amazonensis [3] is “inactive”. In the data set on Trypanosoma cruzi [6] (THP-1, 72 h), this compound returned a GI50 above 100 µM.
On to `CCCCCc1ccc(-c2cn(Cc3cc(-c4ccccc4)no3)nn2)cc1`, for which the inhibition of growth at 100 µM with Trypanosoma cruzi [1] is 0%. Further, the “growth inhibition (GI)” value in the data set on Leishmania amazonensis [3] is “inactive”. Moreover, in the data set with Trypanosoma cruzi [6], the GI50 entry is “inactive”.
With `COc1ccc(-c2cc(Cn3cc(-c4ccc([N+](=O)[O-])cc4)nn3)on2)cc1OC`, the inhibition of growth at 100 µM in the data set with Trypanosoma cruzi [1] was 37.8%. In the data set on Leishmania amazonensis [3], the “growth inhibition (GI)” value was “inactive”. The same compound yielded a GI50 in the data set on Trypanosoma cruzi [6] (THP-1, 72 h) above 100 µM.
Regarding `Cc1cc(C)c(-c2cn(Cc3cc(-c4ccc5c(c4)OCO5)no3)nn2)cc1C`, the inhibition of growth at 100 µM in the data set on Trypanosoma cruzi [1] stood at 13.4%. The “growth inhibition (GI)” value in the data set on Leishmania amazonensis [3] is “inactive”. In the data set on Trypanosoma cruzi [6] (THP-1, 72 h), this compound registered a GI50 above 100 µM.
With `COc1cc(OC)cc(-c2cn(Cc3cc(-c4ccccc4)no3)nn2)c1`, in the data set on Trypanosoma cruzi [1], the inhibition of growth at 100 µM worked out at 95.3%. The selectivity ratio in data set [2] worked out at 2.6. Besides, the “growth inhibition (GI)” value in the data set on Leishmania amazonensis [3] was “inactive”. For the same compound, half-maximal cytotoxicity in data set [4] (CC50 at 72 h) was put at 143 µM. For the same compound, in data set [5], the inhibition stood at 0%. The compound also had a GI50 with Trypanosoma cruzi [6] (THP-1, 72 h) of 54.5 µM.
Take `CCCCCc1ccc(-c2cn(Cc3cc(-c4ccc(OC)c(OC)c4)no3)nn2)cc1`: the inhibition of growth at 100 µM in the data set on Trypanosoma cruzi [1] is 80.2%. Further, the selectivity ratio in data set [2] is above 41. The “growth inhibition (GI)” value with Leishmania amazonensis [3] was “inactive”. In data set [4], this compound came in with a CC50 at 72 h above 500 µM. Further, the inhibition in data set [5] turned out to be 0%. In the data set with Trypanosoma cruzi [6] (THP-1, 72 h), the GI50 came to 12.2 µM.
Regarding `OCc1ccc(-c2cn(Cc3cc(-c4ccccc4)no3)nn2)cc1`, in the data set on Trypanosoma cruzi [1], the inhibition of growth at 100 µM was found to be 0%. The “growth inhibition (GI)” value with Leishmania amazonensis [3] was “inactive”. Besides, the GI50 result with Trypanosoma cruzi [6] was “inactive”.
Turning to `Cc1cc(C)c(-c2cn(Cc3cc(-c4ccccc4)no3)nn2)cc1C`, the inhibition of growth at 100 µM with Trypanosoma cruzi [1] was 89.5%. In addition, the selectivity ratio in data set [2] amounted to 2.3. Moreover, the “growth inhibition (GI)” value in the data set with Leishmania amazonensis [3] was “inactive”. The same compound yielded a CC50 at 72 h in data set [4] of 200 µM. Further, the inhibition in data set [5] was 0%. This compound came in with a GI50 in the data set with Trypanosoma cruzi [6] (THP-1, 72 h) of 88.4 µM.
As for `COc1ccc(-c2cc(Cn3cc(-c4ccccc4OC)nn3)on2)cc1OC`, the inhibition of growth at 100 µM with Trypanosoma cruzi [1] is 43.7%. Moreover, in the data set on Leishmania amazonensis [3], the “growth inhibition (GI)” value is “inactive”. In the data set on Trypanosoma cruzi [6] (THP-1, 72 h), this compound displayed a GI50 above 100 µM.
For `COc1ccc(-c2cc(Cn3cc(-c4cc(OC)cc(OC)c4)nn3)on2)cc1`, in that order: 3.6%, “inactive” and above 100 µM.
Take `COc1ccccc1-c1cn(Cc2cc(-c3ccccc3)no2)nn1`: in the data set with Trypanosoma cruzi [1], the inhibition of growth at 100 µM was determined as 12.4%. In addition, in the data set with Leishmania amazonensis [3], the “growth inhibition (GI)” value was “inactive”. Also, in the data set with Trypanosoma cruzi [6] (THP-1, 72 h), the GI50 is above 100 µM.
In the case of `COc1ccc(-c2cc(Cn3cc(-c4cc(C)c(C)cc4C)nn3)on2)cc1OC`, the inhibition of growth at 100 µM with Trypanosoma cruzi [1] was found to be 89.6%. For the same compound, the selectivity ratio in data set [2] was above 9. The “growth inhibition (GI)” value in the data set on Leishmania amazonensis [3] was “inactive”. The compound further returned a CC50 at 72 h in data set [4] above 500 µM. Also, in data set [5], the inhibition turned out to be 9%. The GI50 in the data set on Trypanosoma cruzi [6] (THP-1, 72 h) turned out to be 55.2 µM.
Consider `Cc1ccc(C)c(-c2cn(Cc3cc(-c4ccccc4)no3)nn2)c1`, for which the inhibition of growth at 100 µM in the data set with Trypanosoma cruzi [1] is 0%. Further, in the data set with Leishmania amazonensis [3], the “growth inhibition (GI)” value is “inactive”. Moreover, the GI50 entry in the data set with Trypanosoma cruzi [6] is “inactive”.
Turning to `COc1ccc(-c2cc(Cn3cc(-c4ccc(N(C)C)cc4)nn3)on2)cc1OC`, in the data set on Trypanosoma cruzi [1], the inhibition of growth at 100 µM is 33.9%. In addition, the “growth inhibition (GI)” value with Leishmania amazonensis [3] was “inactive”. The GI50 in the data set with Trypanosoma cruzi [6] (THP-1, 72 h) is above 100 µM.
In the case of `COc1ccc(-c2cn(Cc3cc(-c4ccc5c(c4)OCO5)no3)nn2)cc1`, the results for the inhibition of growth at 100 µM in the data set with Trypanosoma cruzi [1] and in the data set on Leishmania amazonensis [3] were 9.9% and 2.8%, respectively. Besides, the GI50 in the data set with Trypanosoma cruzi [6] (THP-1, 72 h) was above 100 µM.
As to `FC(F)(F)Oc1ccc(-c2cn(Cc3cc(-c4ccccc4)no3)nn2)cc1`, the inhibition of growth at 100 µM in the data set with Trypanosoma cruzi [1] was 28.7%. The “growth inhibition (GI)” value in the data set with Leishmania amazonensis [3] was “inactive”. This compound also returned a GI50 in the data set on Trypanosoma cruzi [6] (THP-1, 72 h) above 100 µM.
